According to ChEMBL document CHEMBL3421553, “Design, synthesis, and biological evaluation of benzoselenazole-stilbene hybrids as multi-target-directed anti-cancer agents” (Eur J Med Chem, 2015):
Activity calls are given as the source filed them. The rule behind the calls is not given here.

What was measured:
[1] = system: MCF7; assay: Antiproliferative activity against human MCF7 cells assessed as cell viability after 48 hrs by MTT assay; type: functional, cell-based; details: MCF7, 48 h
[2] = system: A549; assay: Antiproliferative activity against human A549 cells assessed as cell viability after 48 hrs by MTT assay; type: functional, cell-based; details: A549, 48 h
[3] = Antiproliferative activity against human Bel7402 cells assessed as cell viability after 48 hrs by MTT assay; type: functional, cell-based; details: Bel-7402, 48 h
[4] = system: HeLa; assay: Antiproliferative activity against human HeLa cells assessed as cell viability after 48 hrs by MTT assay; type: functional, cell-based
[5] = Inhibition of rat liver TrxR assessed as increase in absorbance by DTNB assay
[6] = species: Rattus norvegicus; assay: Inhibition of rat liver TrxR assessed as increase in absorbance at 10 uM by DTNB assay
[7] = Aqueous solubility of the compound in phosphate buffer at pH 7.4; type: physicochemical
[8] = Cell cycle arrest in human Bel7402 cells assessed as cells accumulation at G2/M phase at 50 uM after 48 hrs by flow cytometry (reference value: 16.61%); type: functional, cell-based; details: Bel-7402
[9] = system: Bel-7402; assay: Induction of apoptosis in human Bel7402 cells assessed as necrotic cells at 50 uM after 48 hrs by flow cytometry (reference value: 0.19%); type: functional
[10] = system: Bel-7402; assay: Induction of apoptosis in human Bel7402 cells assessed as detection error cells at 50 uM after 48 hrs by flow cytometry (reference value: 0.43%); type: functional
[11] = Cell cycle arrest in human Bel7402 cells assessed as cells accumulation at S phase at 50 uM after 48 hrs by flow cytometry (reference value: 13.99%); type: functional, cell-based; details: Bel-7402
[12] = species: Rattus norvegicus; assay: Inhibition of rat liver TrxR assessed as increase in absorbance at 50 uM by DTNB assay
[13] = Cell cycle arrest in human Bel7402 cells assessed as cells accumulation at Sub-G1 phase at 50 uM after 48 hrs by flow cytometry (reference value: 1.47%); type: functional, cell-based; details: Bel-7402
[14] = Cell cycle arrest in human Bel7402 cells assessed as cells accumulation at G1 phase at 50 uM after 48 hrs by flow cytometry (reference value: 62.60%); type: functional, cell-based; details: Bel-7402
[15] = system: Bel-7402; assay: Induction of apoptosis in human Bel7402 cells assessed as live cells at 50 uM after 48 hrs by flow cytometry (reference value: 98.65%); type: functional
[16] = system: Bel-7402; assay: Induction of apoptosis in human Bel7402 cells assessed as apoptotic cells at 50 uM after 48 hrs by flow cytometry (reference value: 0.73%); type: functional

Row | SMILES | IC50 [1] [µM] | IC50 [2] [µM] | IC50 [3] [µM] | IC50 [4] [µM] | IC50 [5] [µM] | inhibition [6] | solubility [7] [µM] | Activity [8] [%] | Activity [9] [%] | Activity [10] [%] | Activity [11] [%] | inhibition [12] [%] | Activity [13] [%] | Activity [14] [%] | Activity [15] [%] | Activity [16] [%]
1 | COc1cc(/C=C/c2ccc(-n3[se]c4ccccc4c3=O)cc2)cc(OC)c1OC | 3.97 | 3.11 | 1.11 | 5.67 | 5.78 |  |  |  |  |  |  |  |  |  |  | 
2 | COc1cc(/C=C/c2ccc(-n3[se]c4cc(F)ccc4c3=O)cc2)cc(OC)c1 | 0.51 | 1.22 | 0.99 | 0.64 |  | 36.6% | < 10 |  |  |  |  |  |  |  |  | 
3 | COc1cc(/C=C/c2ccc(-n3[se]c4cc(Cl)ccc4c3=O)cc2)cc(OC)c1 | 0.47 | 0.52 | 0.79 | 0.23 |  | 36.4% | < 10 |  |  |  |  |  |  |  |  | 
4 | Oc1ccc(/C=C/c2cc(O)cc(O)c2)cc1 [RESVERATROL] | > 100 | > 100 | 50.7 | 47.9 |  |  |  | 31.2 | 0.01 | 0.03 | 9.83 | 26.1 | 0.15 | 59 | 85.3 | 13.2
5 | COc1cccc(/C=C/c2ccc(-n3[se]c4ccccc4c3=O)cc2)c1 | 9.62 | 10.4 | 13.2 | 7.34 | 12.8 |  |  |  |  |  |  |  |  |  |  | 
6 | COc1ccc(/C=C/c2ccc(N3Cc4ccccc4C3=O)cc2)cc1OC | > 10 | > 10 | > 10 | > 10 |  | inactive | < 10 |  |  |  |  |  |  |  |  | 
7 | O=c1c2ccccc2[se]n1-c1ccccc1 [EBSELEN] | > 100 | > 100 | 68.2 | 78.5 | 8.54 |  |  | 21.2 | 0.72 | 0.56 | 11.2 |  | 3.32 | 58.7 | 90.8 | 7.94
